# Source: ChEMBL document CHEMBL1201862, “PubChem BioAssay data set” (2004)
# Active and inactive are the calls of the source.
# What was measured:
# Galanin receptor type 3 = target: T1, Galanin receptor type 3 (Homo sapiens, UniProt O60755); test: Fluorescence-based cell-based primary high throughput dose response assay to identify antagonists of the Galanin Receptor 3 (GalR3).; type: functional
# T1 sequence (O60755 whole entry): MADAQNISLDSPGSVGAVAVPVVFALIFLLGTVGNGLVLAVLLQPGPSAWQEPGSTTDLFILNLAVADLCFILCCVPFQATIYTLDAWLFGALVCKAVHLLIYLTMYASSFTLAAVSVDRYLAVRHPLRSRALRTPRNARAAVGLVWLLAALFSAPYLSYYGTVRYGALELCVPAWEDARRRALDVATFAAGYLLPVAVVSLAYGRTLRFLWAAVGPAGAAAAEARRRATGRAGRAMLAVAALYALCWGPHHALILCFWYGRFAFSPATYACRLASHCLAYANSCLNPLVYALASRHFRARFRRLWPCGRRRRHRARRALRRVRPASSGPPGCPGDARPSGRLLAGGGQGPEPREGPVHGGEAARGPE
# [1] = target: T2, COUP transcription factor 2 (Homo sapiens, UniProt P24468); test: Luminescence-based cell-based high throughput dose response assay to identify inhibitors of COUP-TFII (NR2F2).; type: functional;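 note: HEK293 cells transiently cotransfected with COUP-TFII expression vector and reporter; luciferase reporter luminescence driven by COUP-TFII from the pX2-168 reporter plasmid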
# T2 sequence (P24468 whole entry): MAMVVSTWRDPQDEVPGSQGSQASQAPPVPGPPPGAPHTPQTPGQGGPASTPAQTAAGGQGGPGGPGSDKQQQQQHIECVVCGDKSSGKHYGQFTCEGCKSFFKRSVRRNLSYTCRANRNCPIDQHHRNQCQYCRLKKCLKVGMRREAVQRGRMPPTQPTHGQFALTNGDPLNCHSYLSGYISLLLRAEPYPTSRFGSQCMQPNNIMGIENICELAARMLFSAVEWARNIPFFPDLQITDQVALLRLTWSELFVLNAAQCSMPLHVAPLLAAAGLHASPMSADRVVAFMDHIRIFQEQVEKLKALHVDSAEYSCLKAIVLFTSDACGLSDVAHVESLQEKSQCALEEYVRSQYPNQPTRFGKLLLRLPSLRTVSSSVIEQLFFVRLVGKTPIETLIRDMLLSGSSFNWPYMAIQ
# [2] = cytotoxicity in HPDE-C7 cells, cell-based, fluorescence, HTS (AID 430); type: functional; details: Homo sapiens
# [3] = microbe, parasite or virus in culture; type: functional; details: Mycobacterium tuberculosis
# [4] = cytotoxicity in KRAS-transformed pancreatic duct cells, primary screen, cell-based, fluorescence, HTS (AID 431); type: functional; details: Homo sapiens;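 note: cell line used: HPDE-C7K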
# HEK293 = test: inhibitors of LMP1-driven NF-kB reporter, dose response, cell-based, HEK293, luciferase, cherry-pick (AID 588343); type: functional; details: Homo sapiens
# [5] = Shn3 3'UTR reporter inhibitors, dose response, cell-based, Clone20 osteoblasts, firefly luciferase, cherry-picked (AID 624132); type: functional;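 note: firefly luciferase luminescence from reporter carrying the Shn3 3'UTR in osteoblasts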
# [6] = HepG2 cell cytotoxicity, dose response, cytotoxicity control for Shn3 inhibitor project, CellTiter-Glo, cherry-picked (AID 624134); type: functional, cell-based
# [7] = control 3'UTR Renilla luciferase suppression, dose response, counter-screen for Shn3 inhibitor project, cell-based, Clone20-Shn3RL, cherry-picked (AID 624133); type: functional
# [8] = inhibitors of HIV Env-driven cell fusion, dose response, cherry-pick (AID 652057); type: functional, cell-based
# [9] = CEM21 lymphoblast cell cytotoxicity, dose response, cytotoxicity control for viral fusion inhibitor project, CellTiter-Glo luminescence, cherry-picked (AID 652042); type: functional, cell-based;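 note: potency for signal decrease meaning cytotoxicity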
# [10] = ZM109 Env clade C HIV-1 fusion inhibitors, dose response, HeLa effector, CEM target cells, luciferase, cherry-pick (AID 652058); type: functional, cell-based
# [11] = inhibitors of clade B AD8 Env fusion, dose response, cell-based, cherry-pick (AID 652062); type: functional;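 note: luciferase signal from cell-cell fusion driven by HIV-1 clade B AD8 Env; potency is for inhibitors of fusion seen as a drop in luminescence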
# [12] = target: T3, Short transient receptor potential channel 4 (Mus musculus, UniProt Q9QUQ5); test: mouse TRPC4 channel activators, dose response, cell-based, HEK293 TRPC4/mu-opioid, Fluo-4 calcium (AID 434937); type: functional
# T3 sequence (Q9QUQ5 whole entry): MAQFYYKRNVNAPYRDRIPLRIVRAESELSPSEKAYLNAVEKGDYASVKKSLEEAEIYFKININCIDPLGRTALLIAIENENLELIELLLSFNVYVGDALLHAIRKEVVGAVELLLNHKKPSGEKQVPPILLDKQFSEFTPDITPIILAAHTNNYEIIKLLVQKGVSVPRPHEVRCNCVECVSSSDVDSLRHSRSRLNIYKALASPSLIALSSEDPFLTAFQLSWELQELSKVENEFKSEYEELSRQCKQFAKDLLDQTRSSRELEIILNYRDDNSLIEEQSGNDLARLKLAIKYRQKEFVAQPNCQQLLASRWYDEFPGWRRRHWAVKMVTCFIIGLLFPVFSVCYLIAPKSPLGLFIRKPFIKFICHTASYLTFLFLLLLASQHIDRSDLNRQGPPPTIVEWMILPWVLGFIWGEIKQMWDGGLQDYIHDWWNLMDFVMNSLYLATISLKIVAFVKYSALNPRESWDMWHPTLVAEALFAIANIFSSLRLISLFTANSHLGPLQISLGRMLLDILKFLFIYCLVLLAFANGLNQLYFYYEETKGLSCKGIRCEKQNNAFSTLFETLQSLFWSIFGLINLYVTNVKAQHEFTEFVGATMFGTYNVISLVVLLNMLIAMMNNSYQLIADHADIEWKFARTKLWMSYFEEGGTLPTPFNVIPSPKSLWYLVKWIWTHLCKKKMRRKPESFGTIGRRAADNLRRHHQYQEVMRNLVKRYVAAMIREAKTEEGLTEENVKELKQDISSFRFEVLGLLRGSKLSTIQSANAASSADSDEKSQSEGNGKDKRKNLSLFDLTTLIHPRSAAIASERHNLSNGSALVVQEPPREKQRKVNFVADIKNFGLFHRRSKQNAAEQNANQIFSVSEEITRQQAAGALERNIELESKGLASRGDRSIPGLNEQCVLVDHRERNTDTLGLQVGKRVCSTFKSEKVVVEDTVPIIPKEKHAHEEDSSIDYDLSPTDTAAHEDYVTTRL
# [13] = cytotoxicity in HEK-293T cells, dose response, cytotoxicity control for TCR NF-kB inhibitor project, luminescence, T-cell screen hits (AID 489026); type: functional, cell-based;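 note: cells exposed to compound about 14 hours before the viability readout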
# Leucine aminopeptidase = target: T4, Leucine aminopeptidase (Plasmodium falciparum 3D7, UniProt Q8IL11); test: P. falciparum M17LAP inhibitors, primary screen, biochemical, fluorogenic H-Leu-NHMec substrate, 1536-well (AID 1619); type: functional
# T4 sequence (Q8IL11 whole entry): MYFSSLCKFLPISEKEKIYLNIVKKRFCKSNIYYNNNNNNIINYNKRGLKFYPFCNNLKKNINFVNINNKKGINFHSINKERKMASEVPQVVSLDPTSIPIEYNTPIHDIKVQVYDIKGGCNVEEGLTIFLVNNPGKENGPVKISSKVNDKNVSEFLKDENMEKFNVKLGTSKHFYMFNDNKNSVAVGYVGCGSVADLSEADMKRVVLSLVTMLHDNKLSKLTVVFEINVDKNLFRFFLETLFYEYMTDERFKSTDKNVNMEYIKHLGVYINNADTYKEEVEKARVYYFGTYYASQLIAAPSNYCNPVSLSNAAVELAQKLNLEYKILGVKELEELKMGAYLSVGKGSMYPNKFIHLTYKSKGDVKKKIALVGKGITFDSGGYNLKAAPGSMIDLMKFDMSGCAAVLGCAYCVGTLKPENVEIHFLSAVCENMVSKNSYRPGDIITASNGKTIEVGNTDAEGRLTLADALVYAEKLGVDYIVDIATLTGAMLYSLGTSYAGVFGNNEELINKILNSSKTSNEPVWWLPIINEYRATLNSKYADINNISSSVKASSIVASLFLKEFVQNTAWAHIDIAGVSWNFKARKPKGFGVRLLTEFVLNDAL
# [14] = target: Induced myeloid leukemia cell differentiation protein Mcl-1 (Homo sapiens, UniProt Q07820); type: functional
# Caspase-6 = target: T5, Caspase-6 (Homo sapiens, UniProt P55212); test: human caspase-6 inhibitors, dose response, biochemical, VEID-R110 fluorescence, cherry-pick (AID 720632)
# T5 sequence (P55212 whole entry): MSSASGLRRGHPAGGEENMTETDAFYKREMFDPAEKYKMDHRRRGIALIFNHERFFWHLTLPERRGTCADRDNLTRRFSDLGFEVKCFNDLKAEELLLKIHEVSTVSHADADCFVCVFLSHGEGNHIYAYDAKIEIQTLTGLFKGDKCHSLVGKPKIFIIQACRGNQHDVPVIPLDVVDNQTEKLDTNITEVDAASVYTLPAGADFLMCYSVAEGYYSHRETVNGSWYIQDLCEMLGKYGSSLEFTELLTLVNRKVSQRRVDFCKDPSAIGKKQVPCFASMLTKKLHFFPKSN
# [15] = growth suppression of PTEN-null colon cells, dose response, cell-based, HCT116 PTEN knockout (AID 1047); type: functional;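 note: HCT116 colon tumor cells with PTEN knocked out; cells exposed to compound for 60 hours before readout; potency for loss of cell viability measured by luminescence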
# [16] = growth suppression of beta-catenin-knockout colon cells, dose response, cell-based, HCT116, human colon tumor (AID 1045); type: functional;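 note: HCT116 colon tumor cells with beta catenin knocked out; cells exposed to compound for 60 hours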
# [17] = system: Streptococcus sp. 'group A'; test: growth inhibition of control SK(-) GAS strain, dose response, counter-screen for streptokinase expression inhibitor project, luminescence, kanamycin, BacTiterGlo, confirmation (AID 1900); type: functional, organism-based
# Streptococcus = test: Group A Streptococcus viability loss, dose response, counter-screen for streptokinase expression inhibitor project, luminescence, BacTiterGlo (AID 1915); type: functional, organism-based;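 note: potency for reduction of bacterial viability or growth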
# INS1 = test: beta cell apoptosis inhibitors, cytokine rescue, dose response, luminescence, retest (AID 449756); type: functional, cell-based; details: Rattus norvegicus;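 note: cell death triggered by IL-1 beta plus TNF-alpha plus IFN-gamma mixture; protective hits raise ATP signal compared with cytokine alone wells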
# [18] = P. falciparum 3D7-ScDHODH growth inhibitors, dose response, SYBR Green, dry powder samples (AID 1159570); type: functional, cell-based;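 note: parasite growth measured after 72 hours of compound exposure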
# [19] = HepG2 cell cytotoxicity, dose response, cytotoxicity control, plate reader, dry powder samples (AID 1159569); type: functional, cell-based;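 note: inhibitor potency with signal falling toward the positive control level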
# [20] = P. falciparum Dd2 growth inhibitors, dose response, SYBR Green, cherry-picked samples (AID 1159567); type: functional, cell-based
# [21] = P. falciparum Dd2 growth inhibitors, dose response, SYBR Green, dry powder samples (AID 1159566); type: functional, cell-based;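 note: potency for growth inhibition with lower SYBR green DNA signal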
# [22] = P. falciparum ATP4 D1247Y mutant growth inhibitors, dose response, NITD609-resistant line, SYBR Green, dry powder (AID 1159571); type: functional, cell-based;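 note: parasites synchronized at ring stage by sorbitol before testing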
# Chain of Induced myeloid leukemia cell differentiation protein Mcl-1 (Q07820 whole entry): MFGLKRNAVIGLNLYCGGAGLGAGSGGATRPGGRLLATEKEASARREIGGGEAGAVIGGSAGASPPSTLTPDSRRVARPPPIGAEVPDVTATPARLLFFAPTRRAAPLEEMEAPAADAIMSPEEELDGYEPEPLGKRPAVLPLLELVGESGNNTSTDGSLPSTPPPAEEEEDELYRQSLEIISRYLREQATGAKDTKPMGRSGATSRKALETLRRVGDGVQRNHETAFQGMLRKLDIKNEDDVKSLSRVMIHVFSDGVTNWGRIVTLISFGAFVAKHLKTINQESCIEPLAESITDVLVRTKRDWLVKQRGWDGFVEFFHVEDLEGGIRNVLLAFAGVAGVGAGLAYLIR
smiles,measurement,setting,value
c1ccc(CNc2ncnc3ccccc23)cc1,IC50,Galanin receptor type 3,2.42 µM (active)
same,IC50,[1],10.3 µM (inactive)
Cc1ccc2[nH]c3c(N4CCN(Cc5ccccc5)CC4)ncnc3c2c1,EC50,[2],14.1 µM (active)
same,CC50,[3],35.2 µM (active)
same,EC50,[4],16.8 µM (active)
same,AC50,HEK293,11.8 µM (active)
same,AC50,[5],4.18 µM (active)
same,AC50,[6],30.8 µM (active)
same,AC50,[7],20.3 µM (active)
same,AC50,[8],8.98 µM (active)
same,AC50,[9],26.2 µM (active)
same,AC50,[10],671 nM (active)
same,AC50,[11],19.5 µM (active)
O=C(Nc1ccncc1)c1ccc(Cl)c(S(=O)(=O)N2CCc3ccccc32)c1,EC50,[12],5.31 µM (active)
same,IC50,[13],62.9 µM (inactive)
same,AC50,[5],3.19 µM (active)
same,AC50,[6],6.33 µM (active)
same,AC50,[7],16.6 µM (active)
same,AC50,[9],51.1 µM (active)
same,AC50,[11],2.18 µM (active)
same,IC50,[1],4.67 µM (active)
NC(=O)c1c(Nc2nc3c(F)cccc3s2)sc2c1CCCC2,IC50,Leucine aminopeptidase,81.8 µM (active)
same,IC50,[14],2.76 µM (active)
COc1cc(C(=O)OCC(=O)N2CCCC2=O)cc(OC)c1C,AC50,Caspase-6,18.5 µM (active)
O=C(CC(Nc1cccc(Cl)c1Cl)C(=O)O)c1ccccc1 (stereo unspecified),IC50,Leucine aminopeptidase,14.2 µM (active)
O=C(Oc1ccccc1)c1cccc2cccnc12,EC50,[2],5.75 µM (active)
same,EC50,[4],> 20 µM (not active)
same,EC50,[15],11.3 µM (active)
same,EC50,[16],11.5 µM (active)
O=P(NS(=O)(=O)c1ccc(Br)cc1)(Oc1ccccc1)Oc1ccccc1,IC50,Leucine aminopeptidase,30.1 µM (active)
Oc1ccc(COCc2ccccc2)c2cccnc12,EC50,[17],2.14 µM (active)
same,EC50,[2],10.4 µM (active)
same,EC50,[4],8.49 µM (active)
same,EC50,Streptococcus,3.25 µM (active)
same,AC50,INS1,1.77 µM (active)
CCc1ccc(-c2nn(Cc3ccccc3)cc2/C=C/C(=O)O)cc1,IC50,Leucine aminopeptidase,31.5 µM (active)
CC(C)CN1C(=O)NC2(CCCc3ccccc32)C1=O (stereo unspecified),AC50,Caspase-6,51.7 µM (active)
COc1ccc(-c2ccccc2[C@H]2[C@@H](C#N)N(C(=O)NC3CCCCC3)[C@H]2CO)cc1,AC50,[18],4.54 µM (active)
same,AC50,[19],> 100 µM (inactive)
same,AC50,[20],3.13 µM (active)
same,AC50,[21],3.88 µM (active)
same,AC50,[22],8.21 µM (active)
COc1ccccc1NC(=O)N1CCCCN2[C@H](CO)[C@H](c3ccc(C#Cc4ccccc4)cc3)[C@@H]2C1,AC50,[18],0.0745 µM (active)
same,AC50,[19],> 100 µM (inactive)
same,AC50,[20],< 0.3 µM (active)
same,AC50,[21],0.118 µM (active)
same,AC50,[22],0.0817 µM (active)
CO[C@H]1CN(C)C(=O)c2cc(NC(=O)c3ccccc3F)ccc2OC[C@H](C)N(C(=O)c2ccccc2F)C[C@H]1C,AC50,[18],2.93 µM (active)
same,AC50,[19],> 100 µM (inactive)
same,AC50,[20],2.47 µM (active)
same,AC50,[21],1.78 µM (active)
same,AC50,[22],1.53 µM (active)
CO[C@H]1CN(C)C(=O)c2ccc(NC(=O)Nc3ccc(C(F)(F)F)cc3)cc2OC[C@H](C)NC[C@H]1C,AC50,[18],1.37 µM (active)
same,AC50,[19],26.9 µM (active)
same,AC50,[20],3.01 µM (active)
same,AC50,[21],2.16 µM (active)
same,AC50,[22],2.17 µM (active)
CCCCC(=O)O[C@H]1CC[C@H]2[C@@H]3CCc4cc(O)ccc4[C@H]3CC[C@]12C [ESTRADIOL VALERATE],EC50,[17],2.3 µM (active)
same,EC50,[2],18.9 µM (active)
same,EC50,[4],> 20 µM (not active)
same,EC50,Streptococcus,2.29 µM (active)
